According to patent US10131679B2, “Substituted dihydropyrrolopyrazole compound” (UBE INDUSTRIES, LTD., priority 2014, dated 2018):
pIC50, pKi: −log10 of the molar value.

Columns and labels:
[1] = test system: human large intestine cancer cell line (HCT-116); assay: Human large intestine cancer (HCT-116) cell growth inhibition test; type: cell-based; conditions: 72 h, HCT-116, culture for 3 days, sulforhodamine B absorbance
Method in brief: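 HCT-116 cells seeded at 1.0×10^3 cells/well in McCoy's 5a with 10% FBS, then exposed to compound (0.1% DMSO final) for 3 days. Growth measured by sulforhodamine B absorbance; IC50 derived from concentration-inhibition data.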

PAK4 = molecular target: T1, PAK4 (Homo sapiens, UniProt O96013); assay: PAK4 enzyme inhibition test; type: biochemical; conditions: Ki=IC50/(1+S/Km); 33P bound to MBP, [γ-33P]ATP, 30° C. for 20 minutes; read-out: Ki value of PAK4 inhibitory activity
T1 construct: purchased Invitrogen Corp. PV4212
Protocol: PAK4 Enzyme Inhibition Test
The preparation of a buffer solution was performed by mixing a trishydroxyaminomethane buffer solution (Tris buffer solution) (pH 7.5), DTT, Triton X-100, MgCl2, ethylene glycol bis(β-aminoethyl ether)-N,N,N′,N′-tetraacetic acid (EGTA), (3-glycerol phosphate, and sodium orthovanadate(V). A 40 μM [γ-^33P]ATP solution was used by diluting a 10 mM ATP solution and a commercially available [γ-^33P]ATP solution (manufactured by PerkinElmer, Inc., Code No. NEG-302H) with the buffer solution. A PAK4 solution was used by diluting commercially available PAK4 (manufactured by Invitrogen Corp., Catalog No. PV4212) with the buffer solution. A substrate solution was used by diluting MBP with the buffer solution. As for the preparation of a reaction solution, the buffer solution, the 40 μM [γ-^33P]ATP solution, the PAK4 solution, and the substrate solution were mixed at 4° C. to obtain a reaction solution.
(§1) PAK4 enzyme reaction was performed by adding 5 μL of a test compound solution prepared with 10% DMSO/90% injectable distilled water, and 45 μL of the reaction solution in a 1.5 mL microtube at 4° C. and reacting in the microtube at 30° C. for 20 minutes in a water bath incubator. After the reaction, a 10% aqueous TCA solution was added to each microtube while cooled to 4° C., and mixed to terminate the reaction. The resultant was left standing at 4° C. for 10 minutes and then centrifuged in a centrifuge, and the supernatant was discarded. Next, a 2% aqueous TCA solution was added, mixed, and then centrifuged in a centrifuge, and the supernatant was discarded. This washing operation was performed twice. After the washing, precipitates were dissolved in a 1 N aqueous NaOH solution, and the radioactivity was measured with a liquid scintillation counter.
The calculation of the inhibitory activity of the test compound against PAK4 was performed as a test compound concentration inhibiting 50% of the amount of ^33P bound to MBP (IC50 value) by using EXSUS (version 8.0.0 or version 8.0.1, manufactured by CAC Exicare Corp.).
(§2) The calculation of a Ki value was performed according to the following calculation expression. S means the concentration of ATP contained in the reaction solution, and Km means a Michaelis-Menten constant. Ki=IC50/(1+S/Km)

CDK2 = molecular target: T2, CDK2 (Homo sapiens, UniProt P24941); assay: CDK2 enzyme inhibition test; type: biochemical; conditions: Ki=IC50/(1+S/Km); 33P bound to MBP, [γ-33P]ATP, 30° C. for 20 minutes; read-out: Ki value of CDK2 inhibitory activity
T2 construct: purchased Invitrogen Corp. PV3267
Protocol: CDK2 Enzyme Inhibition Test
The preparation of a buffer solution was performed by mixing a HEPES buffer solution (pH 7.4), DTT, Triton X-100, and MgCl2. A 500 μM [γ-^33P]ATP solution was used by diluting a 10 mM ATP solution and a commercially available [γ-^33P]ATP solution (manufactured by PerkinElmer, Inc., Code No. NEG-302H) with the buffer solution. A CDK2 solution was used by diluting commercially available CDK2 (manufactured by Invitrogen Corp., Catalog No. PV3267) with the buffer solution. A substrate solution was used by diluting MBP with the buffer solution. As for the preparation of a reaction solution, the buffer solution, the 500 μM [γ-^33P]ATP solution, the CDK2 solution, and the substrate solution were mixed at 4° C. to obtain a reaction solution.
as §1, with “CDK2” for “PAK4”, “mixed thereto,” for “mixed,”
The calculation of the inhibitory activity of the test compound against CDK2 was performed as a test compound concentration inhibiting 50% of the amount of ^33P bound to MBP (IC50 value) by using EXSUS (version 8.0.0 or version 8.0.1, manufactured by CAC Exicare Corp.).
as §2

T1 sequence (O96013 whole entry): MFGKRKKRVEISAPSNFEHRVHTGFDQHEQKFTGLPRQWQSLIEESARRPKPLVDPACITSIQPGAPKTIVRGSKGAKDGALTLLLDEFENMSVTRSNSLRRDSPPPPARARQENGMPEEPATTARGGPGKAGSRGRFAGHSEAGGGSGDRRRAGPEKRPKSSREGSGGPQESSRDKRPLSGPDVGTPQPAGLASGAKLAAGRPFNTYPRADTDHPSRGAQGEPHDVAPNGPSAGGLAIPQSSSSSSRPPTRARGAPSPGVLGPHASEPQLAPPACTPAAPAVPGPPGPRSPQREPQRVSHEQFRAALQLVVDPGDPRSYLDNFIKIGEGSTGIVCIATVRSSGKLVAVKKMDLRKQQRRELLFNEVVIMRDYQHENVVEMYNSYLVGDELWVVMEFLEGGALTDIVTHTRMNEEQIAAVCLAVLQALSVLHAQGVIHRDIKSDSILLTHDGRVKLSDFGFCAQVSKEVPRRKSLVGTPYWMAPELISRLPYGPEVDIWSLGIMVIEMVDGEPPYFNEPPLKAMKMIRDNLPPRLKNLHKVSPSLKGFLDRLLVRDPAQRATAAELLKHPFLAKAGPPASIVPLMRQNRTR

Structure (SMILES)	pIC50 [1]	pKi (PAK4)	pKi (CDK2)
CC(C)(CO)C(NC(=O)N1Cc2c(NC(=O)C3([Si](C)(C)C)CCC3)n[nH]c2C1(C)C)c1ccccc1 (racemic) [IV-354, N-(3-Hydroxy-2,2-dimethyl-1-phenylpropyl)-6,6-dimethyl-3-[1-(trimethylsilyl)cyclobutanecarboxamido]-4,6-dihydropyrrolo[3,4-c]pyrazole-5(1H)-carboxamide]	≥ 6.30		
CC(C)(CO)C(NC(=O)N1Cc2c(NC(=O)C3([Si](C)(C)C)CCC3)n[nH]c2C1(C)C)c1ccccc1 (single isomer, unassigned; (-)) [IV-673, (−)-N-(3-Hydroxy-2,2-dimethyl-1-phenylpropyl)-6,6-dimethyl-3-[1-(trimethylsilyl)cyclobutanecarboxamido]-4,6-dihydropyrrolo[3,4-c]pyrazole-5(1H)-carboxamide]	≥ 6.30	≤ 6.30	
CC1(C)c2[nH]nc(NC(=O)C(C)(C)[Si](C)(C)C)c2CN1C(=O)N[C@H](CO)c1ccccc1 [II-114, (S)—N-(2-Hydroxy-1-phenylethyl)-6,6-dimethyl-3-[2-methyl-2-(trimethylsilyl)propanamido]-4,6-dihydropyrrolo[3,4-c]pyrazole-5(1H)-carboxamide]	≥ 6.30	≤ 6.30	≤ 6.00
CC1(C)c2[nH]nc(NC(=O)C3([Si](C)(C)C)CC3)c2CN1C(=O)N[C@H](CO)c1ccccc1 [III-114, (S)—N-(2-Hydroxy-1-phenylethyl)-6,6-dimethyl-3-[1-(trimethylsilyl)cyclopropanecarboxamido]-4,6-dihydropyrrolo[3,4-c]pyrazole-5(1H)-carboxamide]	≥ 6.30	≤ 6.30	≤ 6.00
CCOC[C@@H](NC(=O)N1Cc2c(NC(=O)C3([Si](C)(C)C)CCC3)n[nH]c2C1(C)C)c1ccccc1 [IV-139, (S)—N-(2-Ethoxy-1-phenylethyl)-6,6-dimethyl-3-[1-(trimethylsilyl)cyclobutanecarboxamido]-4,6-dihydropyrrolo[3,4-c]pyrazole-5(1H)-carboxamide]	≥ 6.30		
C[C@@H](CO)NC(=O)N1Cc2c(NC(=O)C3([Si](C)(C)C)CCC3)n[nH]c2C1(C)C [IV-455, (S)—N-(1-Hydroxypropan-2-yl)-6,6-dimethyl-3-[1-(trimethylsilyl)cyclobutanecarboxamido]-4,6-dihydropyrrolo[3,4-c]pyrazole-5(1H)-carboxamide]		≤ 6.30	≤ 6.00
CC(C)(CO)C(NC(=O)N1Cc2c(NC(=O)C3([Si](C)(C)C)CCC3)n[nH]c2C1(C)C)c1cccc(F)c1 (stereo not drawn) [IV-918, N-[1-(3-Fluorophenyl)-3-hydroxy-2,2-dimethylpropyl]-6,6-dimethyl-3-[1-(trimethylsilyl)cyclobutanecarboxamido]-4,6-dihydropyrrolo[3,4-c]pyrazole-5(1H)-carboxamide]	≥ 6.30	≤ 6.30	
CC(C)(O)C[C@@H](NC(=O)N1Cc2c(NC(=O)C3([Si](C)(C)C)CCC3)n[nH]c2C1(C)C)c1ccc(F)cc1 [IV-939, (R)—N-[1-(4-Fluorophenyl)-3-hydroxy-3-methylbutyl]-6,6-dimethyl-3-[1-(trimethylsilyl)cyclobutanecarboxamido]-4,6-dihydropyrrolo[3,4-c]pyrazole-5(1H)-carboxamide]	≥ 6.30		≤ 6.00
CO[C@@H](C(=O)N1Cc2c(NC(=O)C3([Si](C)(C)C)CCC3)n[nH]c2C1(C)C)c1ccccc1 [IV-1175, (R)—N-[5-(2-Methoxy-2-phenylacetyl)-6,6-dimethyl-1,4,5,6-tetrahydropyrrolo[3,4-c]pyrazol-3-yl]-1-(trimethylsilyl)cyclobutanecarboxamide]	≥ 6.30		
CC[Si](C)(C)C1(C(=O)Nc2n[nH]c3c2CN(C(=O)[C@H](OC)c2ccccc2)C3(C)C)CCC1 [IV-1178, (R)-1-(Ethyldimethylsilyl)-N-[5-(2-methoxy-2-phenylacetyl)-6,6-dimethyl-1,4,5,6-tetrahydropyrrolo[3,4-c]pyrazol-3-yl] cyclobutanecarboxamide]	≥ 6.30		
CC1(C)c2[nH]nc(NC(=O)C3([Si](C)(C)C)CCC3)c2CN1C(=O)[C@H](OC(F)F)c1ccccc1 [IV-1180, (R)—N-{5-[2-(Difluoromethoxy)-2-phenylacetyl]-6,6-dimethyl-1,4,5,6-tetrahydropyrrolo[3,4-c]pyrazol-3-yl}-1-(trimethylsilyl)cyclobutanecarboxamide]	≥ 6.30		
CCO[C@@H](C(=O)N1Cc2c(NC(=O)C3([Si](C)(C)C)CCC3)n[nH]c2C1(C)C)c1ccccc1 [IV-1188, (R)—N-[5-(2-Ethoxy-2-phenylacetyl)-6,6-dimethyl-1,4,5,6-tetrahydropyrrolo[3,4-c]pyrazol-3-yl]-1-(trimethylsilyl)cyclobutanecarboxamide]	≥ 6.30		
CCCO[C@@H](C(=O)N1Cc2c(NC(=O)C3([Si](C)(C)C)CCC3)n[nH]c2C1(C)C)c1ccccc1 [IV-1196, (R)—N-[6,6-Dimethyl-5-(2-phenyl-2-propoxyacetyl)-1,4,5,6-tetrahydropyrrolo[3,4-c]pyrazol-3-yl]-1-(trimethylsilyl)cyclobutanecarboxamide]	≥ 6.30		≤ 6.00
CC1(C)c2[nH]nc(NC(=O)C3([Si](C)(C)C)CCC3)c2CN1C(=O)[C@H](OC1CC1)c1ccccc1 [IV-1208, (R)—N-[5-(2-Cyclopropoxy-2-phenylacetyl)-6,6-dimethyl-1,4,5,6-tetrahydropyrrolo[3,4-c]pyrazol-3-yl]-1-(trimethylsilyl)cyclobutanecarboxamide]	≥ 6.30	≤ 6.30	
CO[C@@H](C(=O)N1Cc2c(NC(=O)C3([Si](C)(C)C)CCC3)n[nH]c2C1(C)C)c1ccccc1F [IV-1383, (R)—N-{5-[2-(2-Fluorophenyl)-2-methoxyacetyl]-6,6-dimethyl-1,4,5,6-tetrahydropyrrolo[3,4-c]pyrazol-3-yl}-1-(trimethylsilyl)cyclobutanecarboxamide]	≥ 6.30	≤ 6.30	
COC(C(=O)N1Cc2c(NC(=O)C3([Si](C)(C)C)CCC3)n[nH]c2C1(C)C)c1cccc(F)c1 (stereo not drawn) [IV-1404, N-{5-[2-(3-Fluorophenyl)-2-methoxyacetyl]-6,6-dimethyl-1,4,5,6-tetrahydropyrrolo[3,4-c]pyrazol-3-yl}-1-(trimethylsilyl)cyclobutanecarboxamide]	≥ 6.30	≤ 6.30	
COC(C(=O)N1Cc2c(NC(=O)C3([Si](C)(C)C)CCC3)n[nH]c2C1(C)C)c1cccs1 (stereo not drawn) [IV-1546, N-{5-[2-Methoxy-2-(thiophen-2-yl)acetyl]-6,6-dimethyl-1,4,5,6-tetrahydropyrrolo[3,4-c]pyrazol-3-yl}-1-(trimethylsilyl)cyclobutanecarboxamide]	≥ 6.30	≤ 6.30	
